The record followed here is patent US20250122219A1 (priority 2023, published 2025).

Data set [1] can be described thus: Cytotoxicity assay in MT-4 cells. The data set is classed as cell-based. To be noted: human; uninfected MT-4 cells, 5 days incubation, Cell Titer Glo; read-out: MT4 CC50. The method, boiled down: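 Viability read by Cell Titer Glo luminescence after 5 days at 37 °C. MT-4 cells, not infected, in complete RPMI (10% FBS), received compound dilution series. Base cytotoxicity set with […] puromycin.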

The nature of data set [2]: physchem. To be noted: ambient temperature, 5 mg/mL dose concentration; for solubility thermodynamic at 24 h / solubility thermodynamic: 23 °C, thermodynamic from solid; for solubility thermodynamic at 24 h: FaSSIF; for solubility thermodynamic: aqueous buffer. It is filed as physicochemical. As to the method: Approximately 7 mg of each test compound as a dry powder was placed in a vial. Aliquots were weighed out for each assay media at 2 hour and 24 hour time points, to be analyzed. The appropriate buffer (FaSSIF or PBS) was added to each vial such that the final dose concentration of 5 mg/mL was achieved. […] The plate was sealed with a pierceable heat seal and analyzed by HPLC-UV.
A system QC (0.01 mg/mL Caffeine in DMSO) was injected every 12-15 injections. […] Results are reported using data obtained at 280 nm. The resulting peak areas were plotted against the known concentrations from the calibration and the filtrates are quantified with respect to the linear regression using Agilent OpenLab Intelligent Reporting Software. The results are reported electronically in mg/mL.

The subject of data set [3] is HIV-1 (IIIB). In words: Antiviral assay in MT-4 cells. The data set is classed as cell-based. In outline: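 Read-out: CellTiter-Glo luminescence after 5 days at 37 °C, reflecting survival of MT-4 cells infected with HIV-1 IIIB (1:250 fresh stock dilution) versus mock-infected. Compounds serially diluted into RPMI with 10% FBS; AZT at 5 μM served as positive control.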

The mark [4] stands for this setting: Human immunodeficiency virus 1, MT4, 120 h, HIV-1 IIIB in MT-4 cells, 5 days incubation, Cell Titer Glo, read-out: MT4 EC50.

In brackets after ≈: the same amount, converted by molar mass. Where two headings read alike, the source gives them in different places.

As usually defined, the CC50 is the concentration giving 50% cytotoxicity. Usually thermodynamic solubility stands for solubility found after equilibrating the solid with the medium. The EC50 is the midpoint of the concentration-response curve.

`CC1=NO[C@@]2(CC[C@H](C)N3C[C@H]2n2cc(C(=O)NCc4ccc(F)cc4F)c(=O)c(O[C@H](C)OC(=O)OC(C)C)c2C3=O)C1` (single isomer, unassigned) [Example 20]: the 50% cytotoxic concentration (CC50) at 5 days in data set [1] was found to be 35 µM. This compound also gave a solubility (thermodynamic) at 24 h in data set [2] of 70 µg/mL (≈ 114 µM). The EC50 in data set [3] (setting [4]) was 11.5 nM.

With `CC1=NO[C@@]2(CC[C@H](C)N3C[C@H]2n2cc(C(=O)NCc4ccc(F)cc4F)c(=O)c(O[C@@H](C)OC(=O)OC(C)C)c2C3=O)C1` (single isomer, unassigned) [Example 21], the CC50 at 5 days in data set [1] was ≥ 50 µM. The compound further gave a thermodynamic solubility at 24 h in data set [2] of 150 µg/mL (≈ 243 µM). For the same compound, in data set [3] (setting [4]), the EC50 is 26.4 nM.

For the compound `COCCOCCOCCOC(=O)Oc1c2n(cc(C(=O)NCc3ccc(F)cc3F)c1=O)[C@@H]1CN(C2=O)[C@@H](C)CC[C@]12CC(OC)=NO2` [Example 3, (3′S,5S,7′R)-10′-((2,4-difluorobenzyl)carbamoyl)-3-methoxy-3′-methyl-1′,11′-dioxo-1′,4′,5′,11′-tetrahydro-3′H,4H,7′H-spiro[isoxazole-5,6′-[2,7]methanopyrido[1,2-a][1,4]diazonin]-12′-yl (2-(2-(2-methoxyethoxy)ethoxy)ethyl) carbonate], in data set [1], the cytotoxic concentration (CC50) at 5 days is 16.3 µM. For the same compound, the solubility (thermodynamic) at 24 h in data set [2] came to 470 µg/mL (≈ 679 µM). Moreover, the 50% effective concentration (EC50) in data set [3] (setting [4]) stood at 1.06 nM.

Turning to `COCCOC(=O)OCOc1c2n(cc(C(=O)NCc3ccc(F)cc3F)c1=O)[C@@H]1CN(C2=O)[C@@H](C)CC[C@]12CC(OC)=NO2` [Example 5, (((3′S,5S,7′R)-10′-((2,4-difluorobenzyl)carbamoyl)-3-methoxy-3′-methyl-1′,11′-dioxo-1′,4′,5′,11′-tetrahydro-3′H,4H,7′H-spiro[isoxazole-5,6′-[2,7]methanopyrido[1,2-a][1,4]diazonin]-12′-yl)oxy)methyl (2-methoxyethyl) carbonate], the cytotoxic concentration (CC50) at 5 days in data set [1] was 39.8 µM. In addition, the thermodynamic solubility in data set [2] (PBS) stood at 39 µg/mL (≈ 61.5 µM). In addition, the thermodynamic solubility at 24 h in data set [2] came to 168 µg/mL (≈ 265 µM). Moreover, the EC50 in data set [3] (setting [4]) is 4.08 nM.

Regarding `COCCOCCOC(=O)Oc1c2n(cc(C(=O)NCc3ccc(F)cc3F)c1=O)[C@@H]1CN(C2=O)[C@@H](C)CC[C@]12CC(C)=NO2` [Example 8, (3′S,5S,7′R)-10′-((2,4-difluorobenzyl)carbamoyl)-3,3′-dimethyl-1′,11′-dioxo-1′,4′,5′,11′-tetrahydro-3′H,4H,7′H-spiro[isoxazole-5,6′-[2,7]methanopyrido[1,2-a][1,4]diazonin]-12′-yl (2-(2-methoxyethoxy)ethyl) carbonate], in data set [1], the cytotoxic concentration (CC50) at 5 days was 11.7 µM. In data set [2], this compound came in with a thermodynamic solubility at 24 h of 486 µg/mL (≈ 768 µM). The EC50 in data set [3] (Human immunodeficiency virus 1, IIIB, MT4, 120 h, read-out: MT4 EC50 (nM)) came out at 0.632 nM.

Regarding `COCCOC(=O)OCOc1c2n(cc(C(=O)NCc3ccc(F)cc3F)c1=O)[C@@H]1CN(C2=O)[C@@H](C)CC[C@]12CC(C)=NO2` [Example 10, (((3′S,5S,7′R)-10′-((2,4-difluorobenzyl)carbamoyl)-3,3′-dimethyl-1′,11′-dioxo-1′,4′,5′,11′-tetrahydro-3′H,4H,7′H-spiro[isoxazole-5,6′-[2,7]methanopyrido[1,2-a][1,4]diazonin]-12′-yl)oxy)methyl (2-methoxyethyl) carbonate], the CC50 at 5 days in data set [1] was 31.7 µM. In addition, the thermodynamic solubility in data set [2] (PBS) amounted to 15 µg/mL (≈ 24.2 µM). Moreover, the solubility (thermodynamic) at 24 h in data set [2] turned out to be 35 µg/mL (≈ 56.6 µM). Moreover, the concentration giving a half-maximal response (EC50) in data set [3] (setting [4]) turned out to be 6.4 nM.

Regarding `COC(=O)OCOc1c2n(cc(C(=O)NCc3ccc(F)cc3F)c1=O)[C@@H]1CN(C2=O)[C@@H](C)CC[C@]12CC(C)=NO2` [Example 12, (((3′S,5S,7′R)-10′-((2,4-difluorobenzyl)carbamoyl)-3,3′-dimethyl-1′,11′-dioxo-1′,4′,5′,11′-tetrahydro-3′H,4H,7′H-spiro[isoxazole-5,6′-[2,7]methanopyrido[1,2-a][1,4]diazonin]-12′-yl)oxy)methyl methyl carbonate], the cytotoxic concentration (CC50) at 5 days in data set [1] was 25.9 µM. The compound also returned a solubility (thermodynamic) at 24 h in data set [2] of 30 µg/mL (≈ 52.2 µM). Moreover, in data set [3] (setting [4]), the half-maximal effective concentration (EC50) stood at 3.81 nM.

As for `CCCCCCCCCCCCCCCCCC(=O)Oc1c2n(cc(C(=O)NCc3ccc(F)cc3F)c1=O)[C@@H]1CN(C2=O)[C@@H](C)CC[C@]12CC(C)=NO2` [Example 15, (3′S,5S,7′R)-10′-((2,4-difluorobenzyl)carbamoyl)-3,3′-dimethyl-1′,11′-dioxo-1′,4′,5′,11′-tetrahydro-3′H,4H,7′H-spiro[isoxazole-5,6′-[2,7]methanopyrido[1,2-a][1,4]diazonin]-12′-yl stearate], the CC50 at 5 days in data set [1] is ≥ 50 µM. The “Thermodynamic PBS Solubility (mg/mL)” value in data set [2] (PBS) is “<LOD”. Besides, the EC50 in data set [3] (setting [4]) is 6.36 nM.

As for `CC1=NO[C@@]2(CC[C@H](C)N3C[C@H]2n2cc(C(=O)NCc4ccc(F)cc4F)c(=O)c(OCOC(=O)OCCCCCC(C)C)c2C3=O)C1` [Example 207, (((3′S,5S,7′R)-10′-((2,4-difluorobenzyl)carbamoyl)-3,3′-dimethyl-1′,11′-dioxo-1′,4′,5′,11′-tetrahydro-3′H,4H,7′H-spiro[isoxazole-5,6′-[2,7]methanopyrido[1,2-a][1,4]diazonin]-12′-yl)oxy)methyl (6-methylheptyl) carbonate], the CC50 at 5 days in data set [1] was 11.3 µM. The EC50 in data set [3] (setting [4]) was 0.564 nM.

`COC1=NO[C@@]2(CC[C@H](C)N3C[C@H]2n2cc(C(=O)NCc4ccc(F)cc4F)c(=O)c(OCOC(=O)OCCCCCC(C)C)c2C3=O)C1` [Example 208, (((3′S,5S,7′R)-10′-((2,4-difluorobenzyl)carbamoyl)-3-methoxy-3′-methyl-1′,11′-dioxo-1′,4′,5′,11′-tetrahydro-3′H,4H,7′H-spiro[isoxazole-5,6′-[2,7]methanopyrido[1,2-a][1,4]diazonin]-12′-yl)oxy)methyl (6-methylheptyl) carbonate]: the 50% cytotoxic concentration (CC50) at 5 days in data set [1] worked out at 21.3 µM. For the same compound, the EC50 in data set [3] (setting [4]) is 0.594 nM.

As to `CC1=NO[C@@]2(CC[C@H](C)N3C[C@H]2n2cc(C(=O)NCc4ccc(F)cc4F)c(=O)c(OCOC(=O)OCCCCCCCC(C)C)c2C3=O)C1` [Example 211, (((3′S,5S,7′R)-10′-((2,4-difluorobenzyl)carbamoyl)-3,3′-dimethyl-1′,11′-dioxo-1′,4′,5′,11′-tetrahydro-3′H,4H,7′H-spiro[isoxazole-5,6′-[2,7]methanopyrido[1,2-a][1,4]diazonin]-12′-yl)oxy)methyl (8-methylnonyl) carbonate], the 50% cytotoxic concentration (CC50) at 5 days in data set [1] amounted to 36.7 µM. In addition, in data set [3] (setting [4]), the half-maximal effective concentration (EC50) turned out to be 3.73 nM.

On to `COC1=NO[C@@]2(CC[C@H](C)N3C[C@H]2n2cc(C(=O)NCc4ccc(F)cc4F)c(=O)c(OCOC(=O)OCCCCCCCC(C)C)c2C3=O)C1` [Example 212, (((3′S,5S,7′R)-10′-((2,4-difluorobenzyl)carbamoyl)-3-methoxy-3′-methyl-1′,11′-dioxo-1′,4′,5′,11′-tetrahydro-3′H,4H,7′H-spiro[isoxazole-5,6′-[2,7]methanopyrido[1,2-a][1,4]diazonin]-12′-yl)oxy)methyl (8-methylnonyl) carbonate], for which, in data set [1], the half-maximal cytotoxic concentration (CC50) at 5 days was ≥ 50 µM. Moreover, the EC50 in data set [3] (setting [4]) is 8.6 nM.

As for `COC[C@@H](C)OC(=O)OCOc1c2n(cc(C(=O)NCc3ccc(F)cc3F)c1=O)[C@@H]1CN(C2=O)[C@@H](C)CC[C@]12CC(C)=NO2` [Example 213, (((3′S,5S,7′R)-10′-((2,4-difluorobenzyl)carbamoyl)-3,3′-dimethyl-1′,11′-dioxo-1′,4′,5′,11′-tetrahydro-3′H,4H,7′H-spiro[isoxazole-5,6′-[2,7]methanopyrido[1,2-a][1,4]diazonin]-12′-yl)oxy)methyl ((R)-1-methoxypropan-2-yl) carbonate], the half-maximal cytotoxic concentration (CC50) at 5 days in data set [1] is ≥ 50 µM. Besides, the EC50 in data set [3] (setting [4]) is 8.29 nM.

On to `COC[C@@H](C)OC(=O)OCOc1c2n(cc(C(=O)NCc3ccc(F)cc3F)c1=O)[C@@H]1CN(C2=O)[C@@H](C)CC[C@]12CC(OC)=NO2` [Example 214, (((3′S,5S,7′R)-10′-((2,4-difluorobenzyl)carbamoyl)-3-methoxy-3′-methyl-1′,11′-dioxo-1′,4′,5′,11′-tetrahydro-3′H,4H,7′H-spiro[isoxazole-5,6′-[2,7]methanopyrido[1,2-a][1,4]diazonin]-12′-yl)oxy)methyl ((R)-1-methoxypropan-2-yl) carbonate], for which, in data set [1], the 50% cytotoxic concentration (CC50) at 5 days was ≥ 50 µM. The EC50 in data set [3] (setting [4]) was determined as 6.25 nM.

`COC1=NO[C@@]2(CC[C@H](C)N3C[C@H]2n2cc(C(=O)NCc4ccc(F)cc4F)c(=O)c(OCOC(=O)OC[C@@H](C)OC)c2C3=O)C1` [Example 218, (((3′S,5S,7′R)-10′-((2,4-difluorobenzyl)carbamoyl)-3-methoxy-3′-methyl-1′,11′-dioxo-1′,4′,5′,11′-tetrahydro-3′H,4H,7′H-spiro[isoxazole-5,6′-[2,7]methanopyrido[1,2-a][1,4]diazonin]-12′-yl)oxy)methyl ((R)-2-methoxypropyl) carbonate]: the half-maximal cytotoxic concentration (CC50) at 5 days in data set [1] was determined as 32.5 µM. In addition, in data set [3] (setting [4]), the 50% effective concentration (EC50) worked out at 3.09 nM.
